Values belong to the molecule of their own block, whether it stands above or below them. Square brackets hold non-standard residues; d marks the D form. Peptide text beside a SMILES is read from it. * marks the point of attachment. CA = chloroamidine (on ornithine side chain, O(CA) = ornithine chloroamidine), N=C(CCl)*; Orn(fluoroacetimidoyl) = N=C(CF)NCCC[C@H](N)C(=O)O; Orn = NCCC[C@H](N)C(=O)O
Legend:
creatine kinase (CK) = test: Creatine kinase activity (CK NAC activated liquiUV test); type: biochemical, mammalian; conditions: enzyme treated with inhibitor 10 min at room temperature
Procedure: (§1) The activities of CK and TG (both purchased from Sigma-Aldrich (Schnelldorf, Germany) were assayed with the help of the commercial kits CK NAC activated liquiUV test form
(§2) Human GmbH (Wiesbaden, Germany) and the Enzymatic Assay of [sequence] from Sigma-Aldrich (Schnelldorf, Germany) according to the manufacturers' instructions.

transglutaminase (TG) = transglutaminase (TG) (UniProt P08587); test: biochemical
transglutaminase (TG), sequence (P08587 whole entry): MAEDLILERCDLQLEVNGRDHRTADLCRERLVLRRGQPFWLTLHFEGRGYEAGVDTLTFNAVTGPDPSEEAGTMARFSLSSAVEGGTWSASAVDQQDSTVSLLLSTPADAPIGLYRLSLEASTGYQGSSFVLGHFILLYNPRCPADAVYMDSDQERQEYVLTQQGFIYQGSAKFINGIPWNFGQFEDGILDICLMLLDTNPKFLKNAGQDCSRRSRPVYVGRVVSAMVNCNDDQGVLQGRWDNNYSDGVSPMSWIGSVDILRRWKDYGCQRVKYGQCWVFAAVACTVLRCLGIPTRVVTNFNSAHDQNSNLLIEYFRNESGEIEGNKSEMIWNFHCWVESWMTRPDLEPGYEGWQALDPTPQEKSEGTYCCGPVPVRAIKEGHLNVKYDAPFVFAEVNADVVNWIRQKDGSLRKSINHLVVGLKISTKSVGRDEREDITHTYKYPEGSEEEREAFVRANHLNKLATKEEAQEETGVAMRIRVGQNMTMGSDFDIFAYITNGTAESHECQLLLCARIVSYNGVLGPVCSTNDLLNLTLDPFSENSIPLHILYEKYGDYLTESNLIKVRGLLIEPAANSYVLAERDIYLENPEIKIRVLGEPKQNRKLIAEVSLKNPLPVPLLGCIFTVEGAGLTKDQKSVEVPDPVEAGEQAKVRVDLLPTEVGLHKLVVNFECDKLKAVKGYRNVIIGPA
Procedure: as §1, §2

PAD2 [1] = molecular target: T1, PAD2 (Homo sapiens, UniProt Q9Y2J8); test: Colorimetric assay (BAEE, DAMO/antipyrine), PAD2; type: biochemical; conditions: Table 22, colorimetric assay of Example 6; read-out: IC50 values (μM) hPAD2
T1 sequence (Q9Y2J8 whole entry): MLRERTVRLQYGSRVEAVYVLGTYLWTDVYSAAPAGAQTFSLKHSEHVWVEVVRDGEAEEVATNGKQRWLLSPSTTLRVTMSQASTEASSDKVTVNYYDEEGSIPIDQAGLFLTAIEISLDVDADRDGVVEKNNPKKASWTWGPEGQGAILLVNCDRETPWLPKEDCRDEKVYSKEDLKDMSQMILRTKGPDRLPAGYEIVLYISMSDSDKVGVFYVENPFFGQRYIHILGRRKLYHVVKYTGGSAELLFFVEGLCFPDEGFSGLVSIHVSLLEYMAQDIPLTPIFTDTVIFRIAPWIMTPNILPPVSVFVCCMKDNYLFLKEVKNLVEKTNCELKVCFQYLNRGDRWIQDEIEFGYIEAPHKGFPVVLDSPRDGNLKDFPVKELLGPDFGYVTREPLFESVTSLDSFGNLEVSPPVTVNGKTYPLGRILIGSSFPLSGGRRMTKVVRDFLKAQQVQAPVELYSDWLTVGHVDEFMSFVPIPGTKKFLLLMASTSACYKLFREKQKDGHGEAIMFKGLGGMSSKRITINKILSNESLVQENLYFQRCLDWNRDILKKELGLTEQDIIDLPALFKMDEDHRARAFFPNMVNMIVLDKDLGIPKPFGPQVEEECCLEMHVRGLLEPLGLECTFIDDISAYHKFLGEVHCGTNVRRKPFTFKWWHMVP
Procedure: One of the assays that was used to investigate the inhibition of a PAD by the inhibitors, is the colorimetric assay that has been described previously {Sugawara et al. 1998}. In this assay benzoylarginine ethyl ester (BAEE) is incubated with a purified recombinant PAD enzyme as indicated in a buffer containing 50 mM Tris-HCl, pH 7.6, 10 mM CaCl2, 2 mM dithiothreitol for 3 hours at 37° C. […] After cooling down to room temperature, the absorbance is measured at 450 nm.
To test the efficacy of the inhibitors (see Table 21) in this assay, a recombinant PAD enzyme as indicated was pre-incubated with various concentrations of inhibitory compounds for 15 minutes at 37° C.
The capacity of various compounds to inhibit the human PAD2 (0.12 μM) and PAD4 (0.2 μM) in this colorimetric assay is illustrated in FIG. 4.

papain = papain (Carica papaya, UniProt P00784); test: biochemical
papain, sequence (P00784 134-345): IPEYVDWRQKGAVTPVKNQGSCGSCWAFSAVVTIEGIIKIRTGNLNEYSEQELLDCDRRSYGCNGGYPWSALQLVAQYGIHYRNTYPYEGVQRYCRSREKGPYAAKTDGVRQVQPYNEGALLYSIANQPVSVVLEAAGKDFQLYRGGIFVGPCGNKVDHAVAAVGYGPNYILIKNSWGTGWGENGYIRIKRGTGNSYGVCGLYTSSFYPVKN
Procedure: The activity of papain was assessed using a similar experimental setting, based on its cleavage of pGlu-Phe-Leu-pNA in reaction buffer (25 mM Tris-HCL, pH 7.6; 150 mM NaCl).

hDDAH-1 = hDDAH-1 (Homo sapiens, UniProt O94760); test: biochemical
hDDAH-1, sequence (O94760 whole entry): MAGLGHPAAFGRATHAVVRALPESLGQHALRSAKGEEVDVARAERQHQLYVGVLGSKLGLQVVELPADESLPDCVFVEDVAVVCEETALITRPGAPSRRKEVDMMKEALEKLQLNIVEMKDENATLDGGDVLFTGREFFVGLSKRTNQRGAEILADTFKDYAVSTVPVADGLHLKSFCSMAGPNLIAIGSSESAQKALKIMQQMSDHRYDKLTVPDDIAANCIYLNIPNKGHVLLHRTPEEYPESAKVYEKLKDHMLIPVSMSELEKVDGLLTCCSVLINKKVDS
Procedure: The most commonly used procedure to determine hDDAH-1 activity relies on diacetyl monoxime (DAMO) derivatization of the ureido group in L-citrulline to form a colored product. This assay has been optimized for monitoring DDAH activity in a 96-well format {Knipp et al., 2000}.
Purified recombinant His6-tagged hDDAH-1 was incubated with its substrate ADMA in assay buffer (100 mM Na2HPO4, pH 8.0) at 37° C. for 1 h. The reaction was quenched by the addition of 0.3 M trifluoroacetic acid. The L-citrulline formed was modified with 1.5 mg/ml DAMO (diacetyl monoxime) and 1.0 mg/ml antipyrine in the presence of 15% sulphuric acid, 12% phosphoric acid and 0.16 mg/ml FeCla3 for 10 minutes at 100° C. After cooling down to room temperature, the absorbance was measured at 450 nm.

caspase-3 = molecular target: T2, caspase-3 (Homo sapiens, UniProt P42574); test: Caspase-3 activity assay (Ac-DEVDpNA cleavage); type: biochemical, mammalian; conditions: enzyme treated with inhibitor 10 min at room temperature
T2 sequence (P42574 29-175 limits assumed): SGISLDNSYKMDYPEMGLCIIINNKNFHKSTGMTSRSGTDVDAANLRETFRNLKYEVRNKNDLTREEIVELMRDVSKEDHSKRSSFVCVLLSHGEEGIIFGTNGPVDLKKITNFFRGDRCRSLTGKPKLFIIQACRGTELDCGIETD
T2 sequence (P42574 176-277 limits assumed): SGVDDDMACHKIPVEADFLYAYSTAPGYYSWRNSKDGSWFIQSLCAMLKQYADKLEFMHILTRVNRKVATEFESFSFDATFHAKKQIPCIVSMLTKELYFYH
Procedure: Upon incubation of purified recombinant caspase-3 with its commercially available substrate: acetyl-Asp-Glu-Val-Asp-p-nitroanilide (Ac-DEVDpNA) SEQ ID NO: 145 in CFS buffer (220 mM mannitol, 68 mM sucrose, 2mM NaCl, 2.5 mM KH2PO4, 10 mM HEPES, pH 7.4 plus a cocktail of protease inhibitors), the substrate is cleaved, pNA is released and its absorbance at 405 nm can be monitored.

PAD2 [2] = molecular target: T1, PAD2; test: ABAP antibody based PAD enzyme activity assay, PAD2; type: biochemical; conditions: Table 19, first 8 pentapeptide inhibitors
Procedure: These 8 pentapeptides inhibitors are represented by SEQ ID NO: 12-19. (O(FA) stands for ornithine fluoroamidine, O(CA) stands for ornithine chloroamidine). The IC50's for human PAD2 and 4 as well as for mouse PAD2 and 4 were determined in an assay developed by Zendman and others {Zendman et al. 2007}. Of this series the inhibitor T-D-O(FA)-G-S(CXP5-101) (SEQ ID NO: 12) was the best PAD2 and PAD4 inhibitor. Subsequently, several modifications were brought to this lead compound.
To determine inhibition of PAD2 and PAD4 activity, the commercially available Antibody based PAD enzyme activity assay from ModiQuest Research (cat no: MQ17.101) has been used according to manufacturers specifications.
PAD enzymes (amounts that give maximum deimination) were mixed with PAD inhibitors at the following concentrations (4.9, 9.8, 19.5, 39, 78.1, 156, 313, 625, 1250, 2500 and 5000 μM) and pre-incubated for 30 minutes at 37° C. After pre-incubation, mixtures of PAD enzymes and inhibitors were added to the wells for an additional incubation of 75 minutes. After thoroughly washing the 96-well plates with PBS, the conversion of the arginines into citrullines of the coating was measured with the use of a propriety anti-citrulline-antibody, followed by a secondary HRP-labelled antibody recognizing the anti-citrulline antibody. Incubation with both antibodies was performed for 1 h at 37° C. […]

[3] = tested on: collagen antibody induced arthritis (CAIA); test: Collagen antibody induced arthritis (CAIA) mouse model; type: in vivo; conditions: 0.5 mg daily i.v. day 3 to 11 except day 9, male DBA/J1 mice, FIG. 6
Procedure: FIG. 6. The collagen antibody induced arthritis (CAIA) model (MQR; 18.101) was used to test the therapeutic effect of the PAD-inhibitor CXP5.7-011 (SEQ ID NO:143). At day 0 mice were injected i.p. with 2.8 mg anti-collagen antibodies. LPS (25 μg/mouse) was administered on day 3 via i.p. injection. The inhibitor (0.5 mg CXP5.7-011 in 200 μl PBS containing 20 mM sodium phosphate), or 200 μl PBS containing 20 mM sodium phosphate as the placebo, was administered daily from day 3 until day 11 (with the exception of day 9). Animals were scored daily until day 14 for degree of inflammation. Mean arthritis score per experimental group (5 mice) is indicated at each time point.
One of the peptide based human PAD 2 and PAD 4 inhibitors was tested in the commercially available collagen antibody induced arthritis (CAIA) mouse model (Modiquest research B.V., product number 18.101). Experimental procedures were performed according to manufacturers specifications to induce arthritis in mice (World Wide Web (www) modiquestresearch.n1/shop/files/18.101-50MG%20 —2007.08.22.pdf) In short, on day 0 male DBA/J1 mice (5mice/group) of the age of 8 weeks have been injected i.p. with a mix of 8 anti-collagen antibodies (2.8 mg/mouse). […]
Animals where scored daily for degree of inflammation in their paws. […]

Molecule: CC[C@H](C)[C@H](NC(=O)[C@H](Cc1ccccc1)NC(=O)[C@H](CC(=O)O)NC(=O)[C@H](CCCNC(=N)CF)NC(=O)[C@H](CC(=O)O)NC(=O)[C@H](Cc1ccccc1)NC(=O)[C@H](CCCCN)NC(C)=O)C(N)=O [Peptide 0743-58FA, Ac-K-F-D-O(FA)-D-F-I-amide] (Ac-KFD[Orn(fluoroacetimidoyl)]DFI-NH2)
IC50 (creatine kinase (CK)): 800 µM | IC50 (transglutaminase (TG)): 1000 µM | IC50 (PAD2 [1]): 35 µM | IC50 (papain): > 2000 µM | IC50 (hDDAH-1): > 2000 µM | IC50 (caspase-3): 920 µM

IC50 (PAD2 [2]): 17 µM
Molecule: N=C(CF)NCCC[C@H](NC(=O)[C@H](CC(=O)O)NC(=O)CN)C(=O)N[C@@H](CO)C(=O)NCC(=O)O [SEQ ID NO: 13, G-D-O(FA)-S-G] (H-GD[Orn(fluoroacetimidoyl)]SG-OH)

Molecule: Ac-Y-D-O(CA)-G-S-amide (Ac-YD[Orn](CA)GS-NH2; SMILES CC(=O)N[C@@H](Cc1ccc(O)cc1)C(=O)N[C@@H](CC(=O)O)C(=O)N[C@@H](CCCNC(=N)CCl)C(=O)NCC(=O)N[C@@H](CO)C(N)=O) [CXP5.7-011]
degree of inflammation (mean arthritis score) [3]: clearly demonstrates the inhibitory potential of the inhibitor in this model

Source: patent US8404647B2, “Peptidylarginine deiminase (PAD) inhibitors” (Chiralix B.V., priority 2008, dated 2013)
